Source: US9227971B2, “Pyrazolo[1,5-a]pyrimidine compounds as mTOR inhibitors” (Merck Sharp & Dohme Corp., priority 2010, dated 2016)
Where two headings read alike, the source gives them in different places.

Tests used:
[1] = system: phosphorylated AKT Ser473 (pAKT S473), mTORC2 activity, PC3 cells; assay: mTOR target engagement assay, immunofluorescent cell-based, pAKT S473 readout (mTORC2 activity)
Method in brief: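 After blocking, cells were stained overnight at 4 °C with anti-pAKT S473 antibody, then a fluorescent secondary; inhibition was read as reduced fluorescence intensity.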

[2] = system: phosphorylated 4E-BP1 Thr37/46 (p4E-BP1 Thr37/46), mTORC1 activity, PC3 cells; assay: mTOR target engagement assay, immunofluorescent cell-based, p4E-BP1 Thr37/46 readout (mTORC1 activity); details: read-out: p4E-BP1 Thr37/46 IC50
Method in brief: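 PTEN-mutant PC3 prostate cells were treated with serially diluted compound in 5% FBS F12 medium (0.25% DMSO) for ninety minutes at 37° C, glyoxal-fixed, then immunostained overnight at 4° C for p4E-BP1 Thr37/46 with an Alexa Fluor 488 secondary. IC50 came from four-parameter fits of fluorescence, DMSO-only wells defining 100%.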

[3] = Homo sapiens, PC-3, PC3 cells, compound treatment ninety minutes at 37° C.
[4] = Homo sapiens, PC-3, Table 3-1, PC3 cells
[5] = PC3 cells, compound treatment ninety minutes at 37° C.

Row | Compound | IC50 [1, 3] [nM] | IC50 [2, 3] [nM] | IC50 [1, 4] [nM] | IC50 [2, 4] [nM] | further results
1 | Nc1cc([C@@H]2C[C@H]3CC[C@@H](C2)N3)nc2c(-c3ccc(-c4ccccc4)nc3)cnn12 [Compound 2.23, 5-((1R,3s,5S)-8-azabicyclo[3.2.1]octan-3-yl)-3-(6-phenylpyridin-3-yl)pyrazolo[1,5-a]pyrimidin-7-amine] | 1000 to 10000 | 1000 to 10000 | – | – | –
2 | CC(=O)c1c([C@@H]2C[C@H]3CC[C@@H](C2)N3C(=O)c2nnc[nH]2)nc2c(-c3ccc(-c4cn(C)cn4)nc3)cnn2c1N [Compound 1.1.108, 1-(5-((1R,3s,5S)-8-(4H-1,2,4-triazole-3-carbonyl)-8-azabicyclo[3.2.1]octan-3-yl)-7-amino-3-(6-(1-methyl-1H-imidazol-4-yl)pyridin-3-yl)pyrazolo[1,5-a]pyrimidin-6-yl)ethanone] | 1000 to 10000 | 1000 to 10000 | – | – | –
3 | CS(=O)(=O)c1c([C@@H]2C[C@H]3CC[C@@H](C2)N3C(=O)c2nnc[nH]2)nc2c(-c3ccc(-c4ccc(C(F)(F)F)cc4F)nc3)cnn2c1N [Compound 3.110, ((1R,3s,5S)-3-(7-amino-3-(6-(2-fluoro-4-(trifluoromethyl)phenyl)pyridin-3-yl)-6-(methylsulfonyl)pyrazolo[1,5-a]pyrimidin-5-yl)-8-azabicyclo[3.2.1]octan-8-yl)(4H-1,2,4-triazol-3-yl)methanone] | – | – | 100 to 1000 | 1000 to 10000 | –
4 | CC(=O)c1c([C@@H]2C[C@H]3CC[C@@H](C2)N3C(=O)c2nnc(C)[nH]2)nc2c(-c3ccc(C4(O)CCC4)nc3)cnn2c1N [Compound 7.17, 1-(7-amino-3-(6-(1-hydroxycyclobutyl)pyridin-3-yl)-5-((1R,3s,5S)-8-(3-methyl-1H-1,2,4-triazole-5-carbonyl)-8-azabicyclo[3.2.1]octan-3-yl)pyrazolo[1,5-a]pyrimidin-6-yl)ethanone] | 100 to 1000 | 100 to 1000 | – | – | –
5 | CC(=O)c1c([C@@H]2C[C@H]3CC[C@@H](C2)N3C(=O)c2nnc[nH]2)nc2c(-c3cccnc3)cnn2c1N [Compound 1.1.80, 1-(5-((1R,3s,5S)-8-(4H-1,2,4-triazole-3-carbonyl)-8-azabicyclo[3.2.1]octan-3-yl)-7-amino-3-(pyridin-3-yl)pyrazolo[1,5-a]pyrimidin-6-yl)ethanone] | 100 to 1000 | 100 to 1000 | – | – | –
6 | 1-((1R,3s,5S)-3-(6-acetyl-7-amino-3-(6-(fluoromethyl)pyridin-3-yl)pyrazolo[1,5-a]pyrimidin-5-yl)-8-azabicyclo[3.2.1]octan-8-yl)-2-hydroxyethanone [Compound 1.1.92] | – | – | – | – | IC50 [1, 5]: 1 to 100 nM; IC50 [2, 5]: 1 to 100 nM
7 | COc1ccc(-c2ncc(-c3cnn4c(N)c(S(C)(=O)=O)c([C@@H]5C[C@H]6CC[C@@H](C5)N6C(=O)c5nnc[nH]5)nc34)cn2)cc1F [Compound 3.147, ((1R,3s,5S)-3-(7-amino-3-(2-(3-fluoro-4-methoxyphenyl)pyrimidin-5-yl)-6-(methylsulfonyl)pyrazolo[1,5-a]pyrimidin-5-yl)-8-azabicyclo[3.2.1]octan-8-yl)(4H-1,2,4-triazol-3-yl)methanone] | – | – | 1000 to 10000 | 1000 to 10000 | –
8 | CC(=O)c1c(C2CC3COCC(C2)N3C(=O)c2nc[nH]n2)nc2c(-c3ccc(-c4ccccc4)nc3)cnn2c1N (stereo not drawn) [Compound 8.27, 1-(5-(9-(1H-1,2,4-triazole-3-carbonyl)-3-oxa-9-azabicyclo[3.3.1]nonan-7-yl)-7-amino-3-(6-phenylpyridin-3-yl)pyrazolo[1,5-a]pyrimidin-6-yl)ethanone] | – | – | – | – | IC50 ([1]; Homo sapiens, PC-3, PC3 cells): 1 to 100 nM; IC50 ([2]; Homo sapiens, PC-3, PC3 cells): 100 to 1000 nM
9 | CS(=O)(=O)c1c([C@@H]2C[C@H]3CC[C@@H](C2)N3C(=O)CO)nc2c(-c3ccc(C(N)=O)c(F)c3)cnn2c1N [Compound 3.156, 4-(7-amino-5-((1R,3a,5S)-8-(2-hydroxyacetyl)-8-azabicyclo[3.2.1]octan-3-yl)-6-(methylsulfonyl)pyrazolo[1,5-a]pyrimidin-3-yl)-2-fluorobenzamide] | – | – | > 10000 | 1000 to 10000 | –
